From patent US20230250070A1, “DIHYDROOXAZOLE AND THIOUREA DERIVATIVES MODULATING THE NLRP3 INFLAMMASOME PATHWAY” (AC IMMUNE SA, priority 2020, published 2023)
pIC50: −log10 of the molar value.

The molecules below were run on NLRP3 inflammasome pathway (assay: NLRP3 inflammasome pathway activation assay, MSU stimulation, IL-1β release (AlphaLISA)). Conditions: PMA-differentiated, LPS-primed human monocyte-like cells, MSU 150 µg/ml for 3 h.
Type: cell-based
Method: The following assays were used to determine the inhibitory activity of test compounds on the NLRP3 inflammasome pathway using common stimuli Nigericin (Invivogen) or monosodium urate crystals (MSU) (Invivogen).
Human monocyte-like cells were cultured in RPMI-1640 Glutamax medium supplemented with 10% heat inactivated FCS and 50 U/ml penicillin-streptomycin (Life Technologies).
Human monocyte-like cells were seeded at 75000 per well in a 96-well plate and were differentiated overnight into macrophages with 10 ng/ml PMA (Phorbol Myristate Acetate). The following day, medium containing 10 ng/ml LPS (Lipopolysaccharide) were added. After 3 hours of LPS priming, concentrations of test compound in the range from 100 µM to 6 nM were added 30 min prior to NLRP3 inflammasome pathway stimulation with Nigericin 3.75 µM or MSU 150 µg/ml for 3 h.
For IL-1β quantification, supernatants were analyzed using AlphaLISA kits according to the manufacturer’s instructions (Perkin Elmer AlphaLISA AL220F). Briefly, in a 384-well OptiPlate™ microplate, 5 µl of sample was mixed, with 20 µl of AlphaLISA Anti-Analyte Acceptor beads (10 µg/mL final) and Biotinylated Antibody Anti-Analyte (1 nM final). Then, incubated 60 minutes at RT, then 25 µL of 2X SA-Donor beads (40 µg/mL final) were added and incubated 30 minutes at RT in the dark. Reading was done using an EnVision-Alpha Reader (PerkinElmer).
IC50(concentration corresponding to 50% inhibition) were determined using GraphPad Prism 8.
`CC(C)OC(=O)C1(c2cc(C(C)(C)O)on2)CN=C(Nc2c3c(cc4c2CCC4)CCC3)O1` (racemic) [Example 17, isopropyl 2-((1,2,3,5,6,7-hexahydro-s-indacen-4-yl)amino)-5-(5-(2-hydroxypropan-2-yl)isoxazol-3-yl)-4,5-dihydrooxazole-5-carboxylate] was tested, and the pIC50 was > 6.00.
For `CC(C)(O)c1cc(C2(C(=O)OC3CCCC3)CN=C(Nc3c4c(cc5c3CCC5)CCC4)O2)no1` (racemic) [Example 19, cyclopentyl 2-((1,2,3,5,6,7-hexahydro-s-indacen-4-yl)amino)-5-(5-(2-hydroxypropan-2-yl)isoxazol-3-yl)-4,5-dihydrooxazole-5-carboxylate], the pIC50 was > 6.00.
With `CCOC(=O)C1(c2cc(C(C)C)on2)CN=C(Nc2c3c(cc4c2CCC4)CCC3)O1` (racemic) [Example 21A, ethyl 2-((1,2,3,5,6,7-hexahydro-s-indacen-4-yl)amino)-5-(5-isopropylisoxazol-3-yl)-4,5-dihydrooxazole-5-carboxylate] the pIC50 was > 6.00.
`CCOC(=O)C1(c2ccon2)CN=C(Nc2c3c(cc4c2CCC4)CCC3)O1` (racemic) [Example 21B, ethyl 2-((1,2,3,5,6,7-hexahydro-s-indacen-4-yl)amino)-5-(isoxazol-3-yl)-4,5-dihydrooxazole-5-carboxylate] was tested, and the pIC50 was > 6.00.
`CC(C)c1cc(C2(C(=O)O)CN=C(Nc3c4c(cc5c3CCC5)CCC4)O2)no1` (racemic) [Example 27, 2-((1,2,3,5,6,7-hexahydro-s-indacen-4-yl)amino)-5-(5-isopropylisoxazol-3-yl)-4,5-dihydrooxazole-5-carboxylate] was tested, and the pIC50 was 5.00 to 6.00.
In the case of `CCOC(=O)C1(c2cnc(OC)nc2)CN=C(Nc2c3c(cc4c2CCC4)CCC3)O1` (racemic) [Example 32, ethyl 2-((1,2,3,5,6,7-hexahydro-s-indacen-4-yl)amino)-5-(2-methoxypyrimidin-5-yl)-4,5-dihydrooxazole-5-carboxylate], the pIC50 was > 6.00.
With `CCOC(=O)C1(c2cccs2)CN=C(Nc2c3c(cc4c2CCC4)CCC3)O1` (racemic) [Example 34, ethyl 2-((1,2,3,5,6,7-hexahydro-s-indacen-4-yl)amino)-5-(thiophen-2-yl)-4,5-dihydrooxazole-5-carboxylate] the pIC50 was 5.00 to 6.00.
With `CCOC(=O)C1(c2ccco2)CN=C(Nc2c3c(cc4c2CCC4)CCC3)O1` (racemic) [Example 36, ethyl 5-(furan-2-yl)-2-((1,2,3,5,6,7-hexahydro-s-indacen-4-yl)amino)-4,5-dihydrooxazole-5-carboxylate] the pIC50 was 5.00 to 6.00.
`CCOC(=O)C1(c2nccn2C)CN=C(Nc2c3c(c(F)c4c2CCC4)CCC3)O1` (racemic) [Example 37, ethyl 2-((8-fluoro-1,2,3,5,6,7-hexahydro-s-indacen-4-yl)amino)-5-(1-methyl-1H-imidazol-2-yl)-4,5-dihydrooxazole-5-carboxylate] was tested, and the pIC50 was > 6.00.
In the case of `CCOC(=O)C1(C2CCCO2)CN=C(Nc2c3c(cc4c2CCC4)CCC3)O1` (racemic) [Example 40, ethyl 2-((1,2,3,5,6,7-hexahydro-s-indacen-4-yl)amino)-5-(tetrahydrofuran-2-yl)-4,5-dihydrooxazole-5-carboxylate], the pIC50 was > 6.00.
With `CCOC(=O)C1(c2ccno2)CN=C(Nc2c3c(cc4c2CCC4)CCC3)O1` (racemic) [Example 44, ethyl 2-((1,2,3,5,6,7-hexahydro-s-indacen-4-yl)amino)-5-(isoxazol-5-yl)-4,5-dihydrooxazole-5-carboxylate] the pIC50 was > 6.00.
With `COC(=O)C1(c2cc(OC)on2)CN=C(Nc2c3c(cc4c2CCC4)CCC3)O1` (racemic) [Example 48, methyl 2-((1,2,3,5,6,7-hexahydro-s-indacen-4-yl)amino)-5-(5-methoxyisoxazol-3-yl)-4,5-dihydrooxazole-5-carboxylate] the pIC50 was > 6.00.
With `CCOC(=O)C1(c2cnccn2)CN=C(Nc2c3c(cc4c2CCC4)CCC3)O1` (racemic) [Example 49, ethyl 2-((1,2,3,5,6,7-hexahydro-s-indacen-4-yl)amino)-5-(pyrazin-2-yl)-4,5-dihydrooxazole-5-carboxylate] the pIC50 was > 6.00.
For `CCOC(=O)C1(c2ccn(C(C)C)n2)CN=C(Nc2c3c(cc4c2CCC4)CCC3)O1` (racemic) [Example 54, ethyl 2-((1,2,3,5,6,7-hexahydro-s-indacen-4-yl)amino)-5-(1-isopropyl-1 H-pyrazol-3-yl)-4,5-dihydrooxazole-5-carboxylate], the pIC50 was > 6.00.
`CCOC(=O)C1(c2nc(C(C)C)cs2)CN=C(Nc2c3c(cc4c2CCC4)CCC3)O1` (racemic) [Example 55, ethyl 2-((1,2,3,5,6,7-hexahydro-s-indacen-4-yl)amino)-5-(4-isopropylthiazol-2-yl)-4,5-dihydrooxazole-5-carboxylate] was tested, and the pIC50 was > 6.00.
With `CC(C)(C)OC(=O)C1(c2ccon2)CN=C(Nc2c3c(cc4c2CCC4)CCC3)O1` (racemic) [Example 60, tert-butyl 2-((1,2,3,5,6,7-hexahydro-s-indacen-4-yl)amino)-5-(isoxazol-3-yl)-4,5-dihydrooxazole-5-carboxylate] the pIC50 was > 6.00.
`COC(=O)C1(c2nccs2)CN=C(Nc2c3c(cc4c2CCC4)CCC3)O1` (racemic) [Example 62, methyl 2-((1,2,3,5,6,7-hexahydro-s-indacen-4-yl)amino)-5-(thiazol-2-yl)-4,5-dihydrooxazole-5-carboxylate] was tested, and the pIC50 was > 6.00.
With `CCCOC(=O)C1(c2nccs2)CN=C(Nc2c3c(cc4c2CCC4)CCC3)O1` (racemic) [Example 65, propyl 2-((1,2,3,5,6,7-hexahydro-s-indacen-4-yl)amino)-5-(thiazol-2-yl)-4,5-dihydrooxazole-5-carboxylate] the pIC50 was > 6.00.
With `CCCCOC(=O)C1(c2nccs2)CN=C(Nc2c3c(cc4c2CCC4)CCC3)O1` (racemic) [Example 67, butyl 2-((1,2,3,5,6,7-hexahydro-s-indacen-4-yl)amino)-5-(thiazol-2-yl)-4,5-dihydrooxazole-5-carboxylate] the pIC50 was > 6.00.
With `CCCOC(=O)C1(c2cc(C(C)(C)O)on2)CN=C(Nc2c3c(cc4c2CCC4)CCC3)O1` (racemic) [Example 74, propyl 2-((1,2,3,5,6,7-hexahydro-s-indacen-4-yl)amino)-5-(5-(2-hydroxypropan-2-yl)isoxazol-3-yl)-4,5-dihydrooxazole-5-carboxylate] the pIC50 was > 6.00.
For `CCCCOC(=O)C1(c2cc(C(C)(C)O)on2)CN=C(Nc2c3c(cc4c2CCC4)CCC3)O1` (racemic) [Example 76, butyl 2-((1,2,3,5,6,7-hexahydro-s-indacen-4-yl)amino)-5-(5-(2-hydroxypropan-2-yl)isoxazol-3-yl)-4,5-dihydrooxazole-5-carboxylate], the pIC50 was > 6.00.
With `CCCCCOC(=O)C1(c2cc(C(C)(C)O)on2)CN=C(Nc2c3c(cc4c2CCC4)CCC3)O1` (racemic) [Example 79, pentyl 2-((1,2,3,5,6,7-hexahydro-s-indacen-4-yl)amino)-5-(5-(2-hydroxypropan-2-yl)isoxazol-3-yl)-4,5-dihydrooxazole-5-carboxylate] the pIC50 was > 6.00.
With `CC(C)(C)OC(=O)C1(c2cc(C(C)(C)O)on2)CN=C(Nc2c3c(cc4c2CCC4)CCC3)O1` (racemic) [Example 82, tert-butyl 2-((1,2,3,5,6,7-hexahydro-s-indacen-4-yl)amino)-5-(5-(2-hydroxypropan-2-yl)isoxazol-3-yl)-4,5-dihydrooxazole-5-carboxylate] the pIC50 was > 6.00.
With `COC(=O)C1(c2ccon2)CN=C(Nc2c3c(cc4c2CCC4)CCC3)O1` (racemic) [Example 84, methyl 2-((1,2,3,5,6,7-hexahydro-s-indacen-4-yl)amino)-5-(isoxazol-3-yl)-4,5-dihydrooxazole-5-carboxylate] the pIC50 was > 6.00.
In the case of `COC(=O)C1(c2ccno2)CN=C(Nc2c3c(cc4c2CCC4)CCC3)O1` (racemic) [Example 87, methyl 2-((1,2,3,5,6,7-hexahydro-s-indacen-4-yl)amino)-5-(isoxazol-5-yl)-4,5-dihydrooxazole-5-carboxylate], the pIC50 was > 6.00.
In the case of `CCCCCOC(=O)C1(c2ccno2)CN=C(Nc2c3c(cc4c2CCC4)CCC3)O1` (racemic) [Example 92, pentyl 2-((1,2,3,5,6,7-hexahydro-s-indacen-4-yl)amino)-5-(isoxazol-5-yl)-4,5-dihydrooxazole-5-carboxylate], the pIC50 was > 6.00.
In the case of `CCOC(=O)C1(c2nccs2)CN=C(Nc2c3c(cc4c2CCC4)CCC3)O1` (single isomer, unassigned) [Example 21, ethyl 2-((1,2,3,5,6,7-hexahydro-s-indacen-4-yl)amino)-5-(thiazol-2-yl)-4,5-dihydrooxazole-5-carboxylate], the pIC50 was > 6.00.
`CCOC(=O)C1(c2ccns2)CN=C(Nc2c3c(cc4c2CCC4)CCC3)O1` (single isomer, unassigned) [Example 43, ethyl 2-((1,2,3,5,6,7-hexahydro-s-indacen-4-yl)amino)-5-(isothiazol-5-yl)-4,5-dihydrooxazole-5-carboxylate] was tested, and the pIC50 was > 6.00.
With `COC(=O)C1(c2cc(C(C)(C)O)on2)CN=C(Nc2c3c(cc4c2CCC4)CCC3)O1` (single isomer, unassigned) [Example 72, methyl 2-((1,2,3,5,6,7-hexahydro-s-indacen-4-yl)amino)-5-(5-(2-hydroxypropan-2-yl)isoxazol-3-yl)-4,5-dihydrooxazole-5-carboxylate] the pIC50 was > 6.00.
